Measurements from patent US12043632B2, “6-heteroaryloxy benzimidazoles and azabenzimidazoles as JAK2 inhibitors” (Ajax Therapeutics, Inc., priority 2020, dated 2024).

Biological target: T1, JAK2 (JH1domain-catalytic, Y1007F,Y1008F) kinase (Homo sapiens, UniProt O60674, Y1007F/Y1008F)
T1 construct: JAK2 (JH1domain-catalytic, Y1007F,Y1008F) kinase was expressed as N-terminal fusion; made in house; host or cells: transiently transfected HEK293 cells
Experiment: JAK2 JH1 Domain Binding Assay
Settings: qPCR readout

T1 sequence (O60674 849-1124 Y1007F/Y1008F limits assumed): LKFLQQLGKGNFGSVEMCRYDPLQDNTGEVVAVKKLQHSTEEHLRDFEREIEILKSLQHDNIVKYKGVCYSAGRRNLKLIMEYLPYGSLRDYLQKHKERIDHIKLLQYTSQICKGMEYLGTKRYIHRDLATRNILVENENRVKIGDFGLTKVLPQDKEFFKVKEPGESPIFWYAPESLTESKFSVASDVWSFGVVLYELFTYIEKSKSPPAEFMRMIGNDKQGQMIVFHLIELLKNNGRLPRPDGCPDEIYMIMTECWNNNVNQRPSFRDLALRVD

Kd [µM]	SMILES
0.01 to 0.05	CNc1nccn2ncc(Oc3cnc4nc(Nc5cc(CN6CC(OC)C6)cc(C(F)(F)F)c5)n(C)c4c3Cl)c12 [Example I-247, 7-chloro-N-(3-((3-methoxyazetidin-1-yl)methyl)-5-(trifluoromethyl)phenyl)-1-methyl-6-((4-(methylamino)pyrazolo[1,5-a]pyrazin-3-yl)oxy)-1H-imidazo[4,5-b]pyridin-2-amine]
< 0.01	CNc1nccn2ncc(Oc3cnc4nc(Nc5cc(C(F)(F)C(F)(F)F)cn(C)c5=O)n(C)c4c3Cl)c12 [Example I-201, 3-((7-chloro-1-methyl-6-((4-(methylamino)pyrazolo[1,5-a]pyrazin-3-yl)oxy)-1H-imidazo[4,5-b]pyridin-2-yl)amino)-1-methyl-5-(perfluoroethyl)pyridin-2(1H)-one]
0.05 to 1	CNc1cn2ncc(Oc3cnc4nc(Nc5cc([C@H]6CCCN6C)cc(C(F)(F)F)c5)n(C)c4c3Cl)c2cn1 (single isomer, unassigned) [Example I-359-a]
< 0.01	Cn1c(Nc2cc(C3CC3)cn([C@H]3C[C@@H](O)C3)c2=O)nc2ncc(Oc3cnn4cc(F)ccc34)c(Cl)c21 [Example I-151, cis-3-((7-chloro-6-((6-fluoropyrazolo[1,5-a]pyridin-3-yl)oxy)-1-methyl-1H-imidazo[4,5-b]pyridin-2-yl)amino)-5-cyclopropyl-1-(3-hydroxycyclobutyl)pyridin-2(1H)-one]
< 0.01	CNc1nccn2ncc(Oc3cnc4nc(Nc5cc(C(F)(F)F)cn(C6CC6)c5=O)n(C)c4c3Cl)c12 [Example I-178, 3-((7-chloro-1-methyl-6-((4-(methylamino)pyrazolo[1,5-a]pyrazin-3-yl)oxy)-1H-imidazo[4,5-b]pyridin-2-yl)amino)-1-cyclopropyl-5-(trifluoromethyl)pyridin-2(1H)-one]
0.01 to 0.05	CNc1cn2ncc(Oc3cnc4nc(Nc5cc(C(=O)N(C)C)c(F)c(C(F)(F)F)c5)n(C)c4c3Cl)c2cn1 [Example I-348, 5-((7-chloro-1-methyl-6-((6-(methylamino)pyrazolo[1,5-a]pyrazin-3-yl)oxy)-1H-imidazo[4,5-b]pyridin-2-yl)amino)-2-fluoro-N,N-dimethyl-3-(trifluoromethyl)benzamide]
0.01 to 0.05	CNc1nccn2ncc(Oc3cnc4nc(Nc5cc6c(c(C(F)(F)F)c5)C(C)(C)N(C)C6=O)n(C)c4c3Cl)c12 [Example I-234, 6-((7-chloro-1-methyl-6-((4-(methylamino)pyrazolo[1,5-a]pyrazin-3-yl)oxy)-1H-imidazo[4,5-b]pyridin-2-yl)amino)-2,3,3-trimethyl-4-(trifluoromethyl)isoindolin-1-one]
0.05 to 1	Cn1c(Nc2cc(C(C)(C)C)n([C@H]3CCC[C@H]3O)n2)nc2ncc(Oc3cnn4ccncc34)c(C(F)F)c21 (single isomer, unassigned) [Example I-71-a]
< 0.01	COC1CN(Cc2cc(Nc3nc4ncc(Oc5cnn6ccncc56)c(Cl)c4n3C)cc(C(F)(F)F)c2)C1 [Example I-196, 7-chloro-N-(3-((3-methoxyazetidin-1-yl)methyl)-5-(trifluoromethyl)phenyl)-1-methyl-6-(pyrazolo[1,5-a]pyrazin-3-yloxy)-1H-imidazo[4,5-b]pyridin-2-amine]

The next lines start with the compound.

SMILES	Kd [µM]
COc1c(Oc2cnn3ccccc23)cnc2nc(Nc3cc(C4CC4)cn([C@H]4CC[C@@H]4O)c3=O)n(C)c12 (single isomer, unassigned) [Example I-122-b]	< 0.01
CNc1nccn2ncc(Oc3cnc4nc(Nc5cc(CN6CC[C@@H](N(C)C)C6)cc(C(F)(F)F)c5)n(C)c4c3Cl)c12 [Example I-282, (R)-7-chloro-N-(3-((3-(dimethylamino)pyrrolidin-1-yl)methyl)-5-(trifluoromethyl)phenyl)-1-methyl-6-((4-(methylamino)pyrazolo[1,5-a]pyrazin-3-yl)oxy)-1H-imidazo[4,5-b]pyridin-2-amine]	0.01 to 0.05
Cn1c(Nc2cc(CN3CCC(F)(F)C3)cc(C(F)(F)F)c2)nc2ncc(Oc3cnn4ccncc34)c(Cl)c21 [Example I-197, 7-chloro-N-(3-((3,3-difluoropyrrolidin-1-yl)methyl)-5-(trifluoromethyl)phenyl)-1-methyl-6-(pyrazolo[1,5-a]pyrazin-3-yloxy)-1H-imidazo[4,5-b]pyridin-2-amine]	< 0.01
CO[C@@H]1CCN(Cc2cc(Nc3nc4ncc(Oc5cnn6ccncc56)c(Cl)c4n3C)cc(C(F)(F)F)c2)C1 [Example I-182, (R)-7-chloro-N-(3-((3-methoxypyrrolidin-1-yl)methyl)-5-(trifluoromethyl)phenyl)-1-methyl-6-(pyrazolo[1,5-a]pyrazin-3-yloxy)-1H-imidazo[4,5-b]pyridin-2-amine]	< 0.01
CNc1nccn2ncc(Oc3cnc4nc(Nc5cc6n(n5)CCCC6(F)F)n(C)c4c3C#N)c12 [Example I-373, 2-((4,4-difluoro-4,5,6,7-tetrahydropyrazolo[1,5-a]pyridin-2-yl)amino)-1-methyl-6-((4-(methylamino)pyrazolo[1,5-a]pyrazin-3-yl)oxy)-1H-imidazo[4,5-b]pyridine-7-carbonitrile]	< 0.01
CNc1nccn2ncc(Oc3cnc4nc(Nc5cc(C(F)(F)F)n(C6CC7(COC7)C6)n5)n(C)c4c3Cl)c12 [Example I-236, N-(1-(2-oxaspiro[3.3]heptan-6-yl)-5-(trifluoromethyl)-1H-pyrazol-3-yl)-7-chloro-1-methyl-6-((4-(methylamino)pyrazolo[1,5-a]pyrazin-3-yl)oxy)-1H-imidazo[4,5-b]pyridin-2-amine]	< 0.01
Cn1c(Nc2cc3n(n2)CCCC3(C)C)nc2ncc(Oc3cnn4cc(OCCO)ncc34)c(Cl)c21 [Example I-398, 2-((3-((7-chloro-2-((4,4-dimethyl-4,5,6,7-tetrahydropyrazolo[1,5-a]pyridin-2-yl)amino)-1-methyl-1H-imidazo[4,5-b]pyridin-6-yl)oxy)pyrazolo[1,5-a]pyrazin-6-yl)oxy)ethan-1-ol]	< 0.01
CNc1nccn2ncc(Oc3cnc4nc(Nc5cc(C(F)(F)F)cn([C@@H]6CCOC6)c5=O)n(C)c4c3Cl)c12 (single isomer, unassigned) [Example I-262-b]	< 0.01
Cn1cc(C(F)(F)F)cc(Nc2nc3ncc(Oc4cnn5ccnc(N[C@H]6CCOC6)c45)c(Cl)c3n2C)c1=O [Example I-225, (S)-3-((7-chloro-1-methyl-6-((4-((tetrahydrofuran-3-yl)amino)pyrazolo[1,5-a]pyrazin-3-yl)oxy)-1H-imidazo[4,5-b]pyridin-2-yl)amino)-1-methyl-5-(trifluoromethyl)pyridin-2(1H)-one]	< 0.01
CNc1nccn2ncc(Oc3cnc4nc(Nc5cc(CN6CC[C@@H](OC)C6)cc(C(F)(F)F)c5)n(C)c4c3Cl)c12 [Example I-250, (R)-7-chloro-N-(3-((3-methoxypyrrolidin-1-yl)methyl)-5-(trifluoromethyl)phenyl)-1-methyl-6-((4-(methylamino)pyrazolo[1,5-a]pyrazin-3-yl)oxy)-1H-imidazo[4,5-b]pyridin-2-amine]	0.01 to 0.05
CNc1cn2ncc(Oc3cnc4nc(Nc5cc(-n6cnc(C)c6)cc(C(F)(F)F)c5)n(C)c4c3Cl)c2cn1 [Example I-339, 7-chloro-1-methyl-N-(3-(4-methyl-1H-imidazol-1-yl)-5-(trifluoromethyl)phenyl)-6-((6-(methylamino)pyrazolo[1,5-a]pyrazin-3-yl)oxy)-1H-imidazo[4,5-b]pyridin-2-amine]	< 0.01
Cn1c(Nc2cc(C3CC3)nn(CCO)c2=O)nc2ncc(Oc3cnn4ccccc34)c(Cl)c21 [Example I-126, 4-((7-chloro-1-methyl-6-(pyrazolo[1,5-a]pyridin-3-yloxy)-1H-imidazo[4,5-b]pyridin-2-yl)amino)-6-cyclopropyl-2-(2-hydroxyethyl)pyridazin-3(2H)-one]	< 0.01
Cn1c(Nc2ccc(CN3CCC(F)(F)CC3)c(C(F)(F)F)c2)nc2ncc(Oc3cnn4ccncc34)c(Cl)c21 [Example I-173, 7-chloro-N-(4-((4,4-difluoropiperidin-1-yl)methyl)-3-(trifluoromethyl)phenyl)-1-methyl-6-(pyrazolo[1,5-a]pyrazin-3-yloxy)-1H-imidazo[4,5-b]pyridin-2-amine]	0.01 to 0.05
CN(C)Cc1cc(F)c(Nc2nc3ncc(Oc4cnn5ccncc45)c(Cl)c3n2C)cc1C(F)(F)F [Example I-215, 7-chloro-N-(4-((dimethylamino)methyl)-2-fluoro-5-(trifluoromethyl)phenyl)-1-methyl-6-(pyrazolo[1,5-a]pyrazin-3-yloxy)-1H-imidazo[4,5-b]pyridin-2-amine]	< 0.01
Cn1c(Nc2ccc(CN3CCOCC3)c(C(F)(F)F)c2)nc2ncc(Oc3cnn4ccncc34)c(Cl)c21 [Example I-149, 7-chloro-1-methyl-N-(4-(morpholinomethyl)-3-(trifluoromethyl)phenyl)-6-(pyrazolo[1,5-a]pyrazin-3-yloxy)-1H-imidazo[4,5-b]pyridin-2-amine]	< 0.01
Cn1cc(C(F)(F)F)cc(Nc2nc3ncc(Oc4cnn5ccnc(NCCN6CCOCC6)c45)c(Cl)c3n2C)c1=O [Example I-248, 3-((7-chloro-1-methyl-6-((4-((2-morpholinoethyl)amino)pyrazolo[1,5-a]pyrazin-3-yl)oxy)-1H-imidazo[4,5-b]pyridin-2-yl)amino)-1-methyl-5-(trifluoromethyl)pyridin-2(1H)-one]	< 0.01
CNc1nccn2ncc(Oc3cnc4nc(Nc5cc(C(F)(F)F)n([C@@H]6COC[C@H]6O)n5)n(C)c4c3Cl)c12 (single isomer, unassigned) [Example I-279-b]	< 0.01
CN1CC[C@H](n2nc(Nc3nc4ncc(Oc5cnc6scnc6c5)c(C(F)F)c4n3C)cc2C(C)(C)C)C1 [Example I-39, (S)—N-(5-(tert-butyl)-1-(1-methylpyrrolidin-3-yl)-1H-pyrazol-3-yl)-7-(difluoromethyl)-1-methyl-6-(thiazolo[5,4-b]pyridin-6-yloxy)-1H-imidazo[4,5-b]pyridin-2-amine]	0.01 to 0.05
CNc1nccn2ncc(Oc3cnc4nc(Nc5cc(C6CC6)cn(C)c5=O)n(C)c4c3Cl)c12 [Example I-134, 3-((7-chloro-1-methyl-6-((4-(methylamino)pyrazolo[1,5-a]pyrazin-3-yl)oxy)-1H-imidazo[4,5-b]pyridin-2-yl)amino)-5-cyclopropyl-1-methylpyridin-2(1H)-one]	< 0.01
